Patent publication US20090048291A1, “Novel Piperidine-4-Acetic Acid Derivatives and Their Use” (Euroscreen S.A., priority 2007, published 2009)
Like-named read-outs stand apart in the source and are kept apart here.

How the values were obtained:
[1] = tested on: recombinant and non-replicative HIV virus coding for the firefly luciferase; assay: Inhibitory effect on HIV infection to MAGI-CCR5 cells (HIV-luciferase assay); format: cell-based
Method: The inhibitory activity of the compounds of the invention on HIV infection is measured on the human MAGI R5 recombinant cell line coexpressing the human CCR5 receptor and CD4 at their extracellular membrane. MAGI R5 cells are plated in black view plates at 10,000 cells/well and incubated with the appropriate concentrations of the compounds of the invention during 1 hour. This is followed by a 24 hours infection period with the recombinant and non-replicative HIV virus coding for the firefly luciferase (Bona et al., 2006, Antimicrob. Agents Chemother. 50: 3407-3417). The inhibitory effect of the tested compound on virus entry in MAGI R5 cells is measured by a reduction of luciferase signal (TopCount-NXT reader (Packard) and detection luciferase kit: Steadylite HTS assay kit (Perkin Elmer)) in the presence of the compound of the invention relative to the maximum signal obtained from cells infected with the virus without any added compound. The results of the tested compounds are reported as the concentration of compound required to inhibit 50% (IC50) of the maximum luciferase signal.

CCR5 receptor [2] = target: T1, CCR5 receptor (Homo sapiens, UniProt P51681); assay: 125I-MIP-1β binding competition assay; set-up: expressed in transfected cells; host or cells: Chinese hamster ovary recombinant cells (membranes)
T1 sequence (P51681 whole entry): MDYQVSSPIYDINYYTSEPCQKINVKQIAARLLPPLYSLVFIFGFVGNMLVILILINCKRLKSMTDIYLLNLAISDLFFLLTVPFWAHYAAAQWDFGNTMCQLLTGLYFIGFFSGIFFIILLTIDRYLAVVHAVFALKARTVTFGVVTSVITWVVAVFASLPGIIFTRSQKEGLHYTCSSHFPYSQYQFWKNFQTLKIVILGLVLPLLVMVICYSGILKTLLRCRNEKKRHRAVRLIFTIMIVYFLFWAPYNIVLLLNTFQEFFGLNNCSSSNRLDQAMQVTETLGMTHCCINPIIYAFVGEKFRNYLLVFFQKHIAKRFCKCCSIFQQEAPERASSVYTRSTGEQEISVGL
Method: The ability of the compounds of the invention to inhibit the binding of […] was assessed by an in vitro radioligand binding assay. Membranes were prepared from Chinese hamster ovary recombinant cells which express the human CCR5 receptor. The membranes were incubated with 0.05 nM ^125I-MIP-1β in a HEPES 25 mM/CaCl2 5 mM/MgCl2 1 mM buffer and various concentrations of the compounds of the invention. The amount of iodinated MIP-1β bound to the receptor was determined after filtration by the quantification of membrane associated radioactivity using the TopCount-NXT reader (Packard). Competition curves were obtained for compounds of the invention and the concentration of compound which displaced 50% of bound radioligand (IC50) was calculated

CCR5 receptor [3] = target: T1, CCR5 receptor; assay: Calcium flux aequorin-based assay (agonist response); format: cell-based; set-up: expressed in transfected cells; host or cells: Chinese hamster ovary cells coexpressing apoaequorin and Gα16; conditions: for EC50: Chinese hamster ovary cells expressing the CCR5 receptor, apoaequorin and Gα16, read-out: Aequorin/Ca++ assay EC50
Method: The aequorin assay uses the responsiveness of aequorin to intracellular calcium release induced by the activation of G Protein Coupled Receptors (Stables et al., 1997, Anal. Biochem. 252:115-126; Detheux et al., 2000, J. Exp. Med., 192 1501-1508). Briefly, Chinese hamster ovary cells expressing the CCR5 receptor are transfected to coexpress apoaequorin and Gα16. Cells are incubated with 5 μM Coelenterazine H (Promega) overnight at room temperature, and resuspended at a concentration of 0.1×10^6 cells/ml. Cells are then mixed with test agonist compounds and light emission by the aequorin is recorded with a luminometer (PDSS 6000-Hamamatsu) for 30 sec. Results are expressed as Relative Light Units (RLU). Controls include cells not expressing CCR5 in order to exclude possible non-specific effects of the test compound.
An agonist response is defined as an increase of light emission by aequorin corresponding to 10% or more of the light emitted by a reference sample of cells expressing CCR5 and treated with a the reference agonist ligand MIP-1β. The results of the tested compounds are reported as the concentration of compound required to reach 50% (EC50) of the maximum level of light emission induced by these compounds.

[4] = tested on: recombinant and non-replicative HIV virus coding for the firefly luciferase; assay: Inhibitory effect on HIV infection to MAGI-CCR5 cells (HIV-luciferase assay); format: cell-based; conditions: 10 μM of the compound; MAGI R5 cells (footnote b)
[5] = Human immunodeficiency virus 1, MAGI-CCR5, read-out: HIV-luciferase assay IC50
[6] = membranes of CHO cells expressing human CCR5, 0.05 nM 125I-MIP-1β, read-out: 125I-MIP-1β binding assay IC50

| SMILES | IC50 ([1]; Human immunodeficiency virus 1, MAGI, read-out: IC50 (HIV infection of MAGI R5 cells)) | IC50 [1, 5] | IC50 (CCR5 receptor [2]; [6]) | level of calcium/aequorin response compared to the calcium/aequorin response of MIP-1β at 100 nM (CCR5 receptor [3]; 10 μM of the compound, activity too low for accurate EC50 calculation (footnote a)) | EC50 (CCR5 receptor [3]) | level of inhibition of luciferase activity compared to the inhibition induced by Rantes at 100 nM [4] | IC50 (CCR5 receptor [2]; range over the group, read-out: IC50 (125I-MIP-1β binding), range stated in text for the listed compounds) |
| --- | --- | --- | --- | --- | --- | --- | --- |
| O=C(CC1CCN(CCN(c2ccccc2)c2ccccc2)CC1)NCc1ccccc1 [Compound 50] | 1600 nM | 1600 nM | 436 nM | +9.5%^a |  |  |  |
| COc1ccc(NC(=O)CC2CCN([C@H](C)CN(c3ccccc3)S(=O)(=O)Cc3ccccc3)CC2)cc1 [Compound 96] |  | 3.9 nM | 0.4 nM |  | 70.6 nM |  |  |
| CCCCc1ccc(NC(=O)CC2CCN(CCN(c3ccccc3)c3ccccc3)CC2)cc1 [Compound 27] |  |  | 167 nM |  | 2330 nM | 31.5%^b |  |
| O=C(CC1CCN(CCN(c2ccccc2)c2ccccc2)CC1)Nc1ccc(Cl)cc1 [Compound 6] |  | 2050 nM | 116 nM |  | 1760 nM |  |  |
| Cc1ccc(NC(=O)CC2CCN(CCN(c3ccccc3)c3ccccc3)CC2)cc1 [Compound 8] |  | 2160 nM | 13.3 nM |  | 425 nM |  |  |
| O=C(CC1CCN(CCN(c2ccccc2)c2ccccc2)CC1)NCc1ccc(Cl)cc1 [Compound 15] |  | 1440 nM | 106 nM |  | 4410 nM |  |  |
| O=C(CC1CCN(CCN(c2ccccc2)c2ccccc2)CC1)NC1CCCCC1 [Compound 17] |  |  | 134 nM |  | 438 nM | 55.8%^b |  |
| COc1ccc(NC(=O)CC2CCN(CC[C@H](NC(=O)C3CCC(F)(F)CC3)c3ccccc3)CC2)cc1 [Compound 69] |  | 2.7 nM |  |  | 36.4 nM |  |  |
| Cc1cc(NC(=O)CC2CCN([C@H](C)CN(c3ccccc3)S(=O)(=O)CC3CCC(F)(F)CC3)CC2)[nH]n1 [Compound 55] |  |  |  |  |  |  | 13.3 to 436 nM |
| O=C(CC1CCN(CCN(c2ccccc2)c2ccccc2)CC1)Nc1ccc(F)cc1 [Compound 4] |  | 2470 nM | 70.8 nM |  | 703 nM |  |  |
| COc1ccc(CNC(=O)CC2CCN(CCN(c3ccccc3)c3ccccc3)CC2)cc1 [Compound 16] |  |  | 143 nM |  | 764 nM | 79.6%^b |  |
| C[C@H](CN(c1ccccc1)S(=O)(=O)Cc1ccccc1)N1CCC(CC(=O)Nc2ccc(F)cc2F)CC1 [Compound 98] |  | 3.6 nM | 0.4 nM |  | 60.5 nM |  |  |
